Results from patent US20090311246A1, “Method of Enhancing Remyelination in Demyelinating Diseases of the Central Nervous System” (priority 2008, published 2009).

Columns and labels:
[1] = tested on: sera from SFV-infected B6 mice; assay type: binding
Method: To measure the antibody response of both WT and γδ KO mice against SFV and two of the peptides of the SFV envelope protein, E2, an indirect ELISA was performed. Sera were pooled from 4-6 SFV-infected WT, and 3 KO, mice on days 0, 7, 14, 21 and 35 pi. Briefly, Immunolon 2HB 96 well microtiter plates (VWR, Bridge Port, N.J.) were coated with 1 μg/well of each antigen in 100 μl/well carbonate buffer overnight at room temperature. After washing, the plates were blocked and serum samples were added. […] After washing, biotinylated goat anti-mouse Igs (BD Pharmingen, Torreyana, Calif.), Strepavidin conjugated to Horse Radish Peroxidase (Vector Laboratories, Burlingame, Calif.), and OPD substrate (Sigma, St. Louis, Mo.) were used, as previously described (4, 9). […] Values were considered to be positive when they were >0.3 OD units and exceeded the mean value plus three standard deviations for antibody response on day 0 pi of mice of the same strain. […]
In some instances day 0 OD values were high, thus making the differences appear small. Therefore, to account for such discrepancy, we also determined the ratio of the highest day (day 15 or 21) over day 0.

[2] = tested on: B6 mice; conditions: ref. (4); cited from earlier work
[3] = tested on: sera from SFV-infected WT and γδ KO mice; test: ELISA of sera from SFV-infected WT and γδ KO mice against SFV, E2 peptides, PPD and rMOG; assay type: binding

H-IQDTRNAVRACRIQYHHD-OH [E2 115-129, reference compound]
Dh / D0 (Ratio) ([1]; OD of highest day (day 15 or 21) over day 0, SFV-infected sera): 5.28 | Dh−D0 (difference) ([1]; OD of highest day minus day 0, SFV-infected sera): 0.458 | Net change in the levels of antibody (ΔOD), D7-9 ([1]; SFV-infected mice sera, days 7-9 pi, day 0 OD subtracted): 0.82 ± 0.40 ΔOD | Net change in the levels of antibody (ΔOD), D14-16 ([1]; SFV-infected mice sera, days 14-16 pi, day 0 OD subtracted): 0.91 ± 0.14 ΔOD | Net change in the levels of antibody (ΔOD), D21-23 ([1]; SFV-infected mice sera, days 21-23 pi, day 0 OD subtracted): 0.95 ± 0.22 ΔOD | Net change in the levels of antibody (ΔOD), D31-35 ([1]; SFV-infected mice sera, days 31-35 pi, day 0 OD subtracted): 0.85 ± 0.07 ΔOD | Reactivity of sera from SFV-infected B6 mice with the antigen in ELISA ([1]; vs day 0): reacted | Histopathology after inoculation with the peptide (literature) [2]: induced vaccuolation in myelin | Net change in the level of antibody, D0 WT ([3]; WT mice, day 0): 0 nano gr | Net change in the level of antibody, D7 WT ([3]; WT mice, day 7 pi, ± SD): 69 ± 29 nano gr | Net change in the level of antibody, D14 WT ([3]; WT mice, day 14 pi, ± SD): 83 ± 16 nano gr | Net change in the level of antibody, D21 WT ([3]; WT mice, day 21 pi, ± SD): 90 ± 20 nano gr | Net change in the level of antibody, D35 WT ([3]; WT mice, day 35 pi, ± SD): 73 ± 14 nano gr | Net change in the level of antibody, D0 KO ([3]; γδ KO mice, day 0): 0 nano gr | Net change in the level of antibody, D7 KO ([3]; γδ KO mice, day 7 pi, ± SD): 65 ± 35 nano gr | Net change in the level of antibody, D14 KO ([3]; γδ KO mice, day 14 pi, ± SD): 34 ± 24 nano gr | Net change in the level of antibody, D21 KO ([3]; γδ KO mice, day 21 pi, ± SD): 55 ± 20 nano gr | Net change in the level of antibody, D35 KO ([3]; γδ KO mice, day 35 pi, ± SD): 29 ± 22 nano gr | Reactivity of sera from SFV-infected γδ KO mice ([3]; γδ KO, sera 1:80): lower, but not significantly different than WT
